The source of these data is patent US10442803B2, “Tricyclic heterocycles as bet protein inhibitors” (Incyte Corporation, priority 2013, dated 2019).

Where only a bound is given, the exact number is not on record here.

The assay concerns KMS.12.BM cells. The experiment in a line: KMS.12.BM cell viability assay. As to conditions: 72 h; KMS.12.BM human myeloma cells, 3 days, Cell Titer-GLO ATP quantitation; read-out: KMS cellular IC50. It is filed as cell-based. How it is done:
KMS.12.BM cell line (human myeloma) was purchased from JCRB (Osaka, Japan) and maintained in RPMI with 10% FBS culture medium. To measure the cytotoxic activity of the compounds through ATP quantitation, the KMS.12.BM cells are plated in the RPMI culture medium at 5000 cells/well/per 100 μL into a 96-well polystyrene clear black tissue culture plate (Greiner-bio-one through VWR, NJ), in the presence or absence of a concentration range of test compounds. After 3 days, […] Cell Titer-GLO Luminescent (Promega, Madison, Wis.) cell culture agent is added to each well for 10 minutes at room temperature to stabilize the luminescent signal. This determines the number of viable cells in culture based on quantitation of the ATP present, which signals the presence of metabolically active cells. Luminescence is measured with the Top Count 384 (Packard Bioscience through Perkin Elmer, Boston, Mass.).
IC50 data for the Examples is presented in Table 4 as determined by Assay B1.
For orientation: In ATP-based viability assays light output follows the ATP content of the culture.

A word on the IC50: it is the concentration at which inhibition is half-maximal.

Turning to `Cc1nnc2ccc3c(cc(-c4nccs4)n3Cc3ccccc3)n12` [Example 67, 6-benzyl-1-methyl-7-(1,3-thiazol-2-yl)-6H-pyrrolo[2,3-e][1,2,4]triazolo[4,3-a]pyridine], the IC50 was no more than 1000 nM.

For the compound `Cc1nnc2ccc3c(cc(-c4ccccn4)n3Cc3ccccc3)n12` [Example 68, 6-benzyl-1-methyl-7-pyridin-2-yl-6H-pyrrolo[2,3-e][1,2,4]triazolo[4,3-a]pyridine], the 50% inhibitory concentration (IC50) is no more than 1000 nM.

Turning to `Cc1nnc2ccc3c(cc(-c4cncs4)n3Cc3ccccc3)n12` [Example 69, 6-benzyl-1-methyl-7-(1,3-thiazol-5-yl)-6H-pyrrolo[2,3-e][1,2,4]triazolo[4,3-a]pyridine], the IC50 was no more than 1000 nM.

As for `Cc1nnc2ccc3c(cc(-c4cn(C)cn4)n3Cc3ccccc3)n12` [Example 70, 6-benzyl-1-methyl-7-(1-methyl-1H-imidazol-4-yl)-6H-pyrrolo[2,3-e][1,2,4]triazolo[4,3-a]pyridine], the half-inhibitory concentration (IC50) is no more than 1000 nM.

In the case of `Cc1nnc2ccc3c(cc(-c4ccsc4)n3Cc3ccccc3)n12` [Example 72, 6-benzyl-1-methyl-7-(3-thienyl)-6H-pyrrolo[2,3-e][1,2,4]triazolo[4,3-a]pyridine], the IC50 is no more than 1000 nM.

Regarding `Cc1nnc2ccc3c(cc(-c4cccs4)n3Cc3ccccc3)n12` [Example 73, 6-benzyl-1-methyl-7-(2-thienyl)-6H-pyrrolo[2,3-e][1,2,4]triazolo[4,3-a]pyridine], the IC50 was no more than 1000 nM.

Take `Cc1nnc2ccc3c(cc(-c4c[nH]cn4)n3Cc3ccccc3)n12` [Example 74, 6-benzyl-7-(1H-imidazol-4-yl)-1-methyl-6H-pyrrolo[2,3-e][1,2,4]triazolo[4,3-a]pyridine]: the IC50 is no more than 1000 nM.

In the case of `Cc1nnc2ccc3c(cc(-c4cn(CCN5CCOCC5)cn4)n3Cc3ccccc3)n12` [Example 75, 6-benzyl-1-methyl-7-[1-(2-morpholin-4-ylethyl)-1H-imidazol-4-yl]-6H-pyrrolo[2,3-e][1,2,4]triazolo[4,3-a]pyridine], the IC50 is no more than 1000 nM.

For `Cc1nnc2ccc3c(cc(-c4ccn(C)n4)n3Cc3ccccc3)n12` [Example 76, 6-benzyl-1-methyl-7-(1-methyl-1H-pyrazol-3-yl)-6H-pyrrolo[2,3-e][1,2,4]triazolo[4,3-a]pyridine], the half-inhibitory concentration (IC50) is no more than 1000 nM.

Regarding `Cc1nnc2ccc3c(cc(-c4ccn(CCN5CCOCC5)n4)n3Cc3ccccc3)n12` [Example 77, 6-benzyl-1-methyl-7-[1-(2-morpholin-4-ylethyl)-1H-pyrazol-3-yl]-6H-pyrrolo[2,3-e][1,2,4]triazolo[4,3-a]pyridine], the IC50 is no more than 1000 nM.

Regarding `Cc1nnc2ccc3c(cc(-c4ccn(CCC#N)n4)n3Cc3ccccc3)n12` [Example 78, 3-[3-(6-benzyl-1-methyl-6H-pyrrolo[2,3-e][1,2,4]triazolo[4,3-a]pyridin-7-yl)-1H-pyrazol-1-yl]propanenitrile], the half-inhibitory concentration (IC50) is no more than 1000 nM.

`CCn1ccc(-c2cc3c(ccc4nnc(C)n43)n2Cc2ccccc2)n1` [Example 79, 6-benzyl-7-(1-ethyl-1H-pyrazol-3-yl)-1-methyl-6H-pyrrolo[2,3-e][1,2,4]triazolo[4,3-a]pyridine]: the IC50 was no more than 1000 nM.

For the compound `CCn1cnc(-c2cc3c(ccc4nnc(C)n43)n2Cc2ccccc2)c1` [Example 80, 6-benzyl-7-(1-ethyl-1H-imidazol-4-yl)-1-methyl-6H-pyrrolo[2,3-e][1,2,4]triazolo[4,3-a]pyridine], the IC50 was no more than 1000 nM.

For `Cc1nnc2ccc3c(cc(-c4cn(CCC#N)cn4)n3Cc3ccccc3)n12` [Example 81, 3-[4-(6-benzyl-1-methyl-6H-pyrrolo[2,3-e][1,2,4]triazolo[4,3-a]pyridin-7-yl)-1H-imidazol-1-yl]propanenitrile], the concentration for half-maximal inhibition (IC50) was no more than 1000 nM.

In the case of `CNC(=O)c1cc2c(ccc3nnc(C)n32)n1Cc1ccccc1` [Example 82, 6-benzyl-N,1-dimethyl-6H-pyrrolo[2,3-e][1,2,4]triazolo[4,3-a]pyridine-7-carboxamide], the IC50 was no more than 1000 nM.

`CCCNC(=O)c1cc2c(ccc3nnc(C)n32)n1Cc1ccccc1` [Example 83, 6-benzyl-1-methyl-N-propyl-6H-pyrrolo[2,3-e][1,2,4]triazolo[4,3-a]pyridine-7-carboxamide]: the IC50 was no more than 1000 nM.

With `Cc1nnc2ccc3c(cc(C(=O)NC4CCC4)n3Cc3ccccc3)n12` [Example 85, 6-benzyl-N-cyclobutyl-1-methyl-6H-pyrrolo[2,3-e][1,2,4]triazolo[4,3-a]pyridine-7-carboxamide], the IC50 is no more than 1000 nM.

On to `Cc1nnc2ccc3c(cc(-c4ccn(CCN(C)C)n4)n3Cc3ccccc3)n12` [Example 89, 2-[3-(6-benzyl-1-methyl-6H-pyrrolo[2,3-e][1,2,4]triazolo[4,3-a]pyridin-7-yl)-1H-pyrazol-1-yl]-N,N-dimethylethanamine], for which the IC50 is no more than 1000 nM.

In the case of `Cc1nnc2ccc3c(cc(-c4ccn(C5(CC#N)CNC5)n4)n3Cc3ccccc3)n12` [Example 90, {3-[3-(6-benzyl-1-methyl-6H-pyrrolo[2,3-e][1,2,4]triazolo[4,3-a]pyridin-7-yl)-1H-pyrazol-1-yl]azetidin-3-yl}acetonitrile], the IC50 was no more than 1000 nM.

On to `CC(=O)N1CC(CC#N)(n2ccc(-c3cc4c(ccc5nnc(C)n54)n3Cc3ccccc3)n2)C1` [Example 91, {1-acetyl-3-[3-(6-benzyl-1-methyl-66H-pyrrolo[2,3-e][1,2,4]triazolo[4,3-a]pyridin-7-yl)-1H-pyrazol-1-yl]azetidin-3-yl}acetonitrile], for which the IC50 is no more than 1000 nM.

Consider `Cc1nnc2ccc3c(cc(-c4ccn(C5(CC#N)CN(S(C)(=O)=O)C5)n4)n3Cc3ccccc3)n12` [Example 92, [3-[3-(6-benzyl-1-methyl-6H-pyrrolo[2,3-e][1,2,4]triazolo[4,3-a]pyridin-7-yl)-1H-pyrazol-1-yl]-1-(methylsulfonyl)azetidin-3-yl]acetonitrile], for which the IC50 is no more than 1000 nM.

Regarding `Cc1nnc2ccc3c(cc(-c4ccn(C5(CC#N)CN(C)C5)n4)n3Cc3ccccc3)n12` [Example 93, {3-[3-(6-benzyl-1-methyl-6H-pyrrolo[2,3-e][1,2,4]triazolo[4,3-a]pyridin-7-yl)-1H-pyrazol-1-yl]-1-methylazetidin-3-yl}acetonitrile], the IC50 was no more than 1000 nM.

As for `Cc1nnc2ccc3c(cc(-c4ccn(CCC(=O)N(C)C)n4)n3Cc3ccccc3)n12` [Example 95, 3-[3-(6-benzyl-1-methyl-6H-pyrrolo[2,3-e][1,2,4]triazolo[4,3-a]pyridin-7-yl)-1H-pyrazol-1-yl]-N,N-dimethylpropanamide], the IC50 was no more than 1000 nM.

Regarding `CCNC(=O)CCn1ccc(-c2cc3c(ccc4nnc(C)n43)n2Cc2ccccc2)n1` [Example 96, 3-[3-(6-benzyl-1-methyl-6H-pyrrolo[2,3-e][1,2,4]triazolo[4,3-a]pyridin-7-yl)-1H-pyrazol-1-yl]-N-ethylpropanamide], the IC50 is no more than 1000 nM.

Consider `CNC(=O)CCn1ccc(-c2cc3c(ccc4nnc(C)n43)n2Cc2ccccc2)n1` [Example 97, 3-[3-(6-benzyl-1-methyl-6H-pyrrolo[2,3-e][1,2,4]triazolo[4,3-a]pyridin-7-yl)-1H-pyrazol-1-yl]-N-methylpropanamide], for which the IC50 is no more than 1000 nM.

With `Cc1nnc2ccc3c(cc(-c4ccn(CCC(N)=O)n4)n3Cc3ccccc3)n12` [Example 98, 3-[3-(6-benzyl-1-methyl-6H-pyrrolo[2,3-e][1,2,4]triazolo[4,3-a]pyridin-7-yl)-1H-pyrazol-1-yl]propanamide], the half-inhibitory concentration (IC50) is no more than 1000 nM.
